Measurements: the NIST ThermoML archive (doi:10.1016/j.fluid.2010.05.001)
Numbers after ± are expanded uncertainties.

Tests used:
[1] = xn = mol fraction of the nth substance listed; conditions: 101 kPa, Liquid, Vibrating tube method
[2] = 101.33 kPa, Liquid, Vibrating tube method

CC1CCCCN1 (stereo unspecified) [2-methylpiperidine] + O
[1]
Conditions	mass density [kg/m3]
288.15 K, x1 = 0.022	992.158 ± 0.24
288.15 K, x1 = 0.0488	982.491 ± 0.24
288.15 K, x1 = 0.0966	965.22 ± 0.22
288.15 K, x1 = 0.1901	940.03 ± 0.19
288.15 K, x1 = 0.3019	918.147 ± 0.18
288.15 K, x1 = 0.4006	904.274 ± 0.18
288.15 K, x1 = 0.47	896.239 ± 0.18
288.15 K, x1 = 0.59	883.489 ± 0.19
288.15 K, x1 = 0.685	874.59 ± 0.2
288.15 K, x1 = 0.775	866.186 ± 0.21
288.15 K, x1 = 0.813	863.581 ± 0.22
298.15 K, x1 = 0.0506	976.147 ± 0.27
298.15 K, x1 = 0.0951	957.78 ± 0.22
298.15 K, x1 = 0.1955	930.75 ± 0.2
298.15 K, x1 = 0.288	911.236 ± 0.18
298.15 K, x1 = 0.3958	894.275 ± 0.18
298.15 K, x1 = 0.45	886.977 ± 0.18
298.15 K, x1 = 0.4708	884.952 ± 0.17
298.15 K, x1 = 0.5925	871.352 ± 0.19
298.15 K, x1 = 0.7	860.793 ± 0.2
298.15 K, x1 = 0.8043	851.545 ± 0.21
308.15 K, x1 = 0.0506	969.86 ± 0.28
308.15 K, x1 = 0.0951	951.024 ± 0.23
308.15 K, x1 = 0.1955	921.38 ± 0.2
308.15 K, x1 = 0.288	902.606 ± 0.18
308.15 K, x1 = 0.388	886.089 ± 0.18
308.15 K, x1 = 0.463	875.982 ± 0.18
308.15 K, x1 = 0.585	861.756 ± 0.19
308.15 K, x1 = 0.6501	855.347 ± 0.2
318.15 K, x1 = 0.0506	963.421 ± 0.29
318.15 K, x1 = 0.0951	943.575 ± 0.24
318.15 K, x1 = 0.1955	912.95 ± 0.21
318.15 K, x1 = 0.288	893.567 ± 0.18
318.15 K, x1 = 0.388	876.681 ± 0.18
318.15 K, x1 = 0.463	866.663 ± 0.18
318.15 K, x1 = 0.585	852.312 ± 0.19
318.15 K, x1 = 0.6501	846.574 ± 0.2
328.15 K, x1 = 0.05	957.601 ± 0.3
328.15 K, x1 = 0.0982	935.269 ± 0.32
328.15 K, x1 = 0.3019	883.044 ± 0.2
328.15 K, x1 = 0.4006	867.078 ± 0.18
328.15 K, x1 = 0.4585	859.202 ± 0.18
328.15 K, x1 = 0.5699	846.009 ± 0.19
328.15 K, x1 = 0.6591	836.942 ± 0.2
328.15 K, x1 = 0.775	826.192 ± 0.21
338.15 K, x1 = 0.0951	926.141 ± 0.23
338.15 K, x1 = 0.1901	897.2 ± 0.2
338.15 K, x1 = 0.3019	873.469 ± 0.19
338.15 K, x1 = 0.365	863.604 ± 0.18
338.15 K, x1 = 0.4585	850.39 ± 0.18
338.15 K, x1 = 0.5925	834.463 ± 0.19
338.15 K, x1 = 0.8043	816.519 ± 0.22

CC1CCCCN1 (stereo unspecified) [2-methylpiperidine]
[2]
Conditions	mass density [kg/m3]	molar volume [m3/mol]
288.15 K	846.703 ± 0.24	0.0001171 ± 9e-08
298.15 K	835.787 ± 0.24	0.0001187 ± 9e-08
308.15 K	826.08 ± 0.24	0.0001201 ± 9e-08
318.15 K	817.349 ± 0.24	0.0001213 ± 9e-08
328.15 K	809.08 ± 0.24	0.0001226 ± 9e-08
338.15 K	801.96 ± 0.24	0.0001237 ± 9e-08

CN1CCCCC1 [N-methylpiperidine] + O
[1]
Conditions	mass density [kg/m3]
288.15 K, x1 = 0.0101	994.829 ± 0.29
288.15 K, x1 = 0.0728	966.82 ± 0.29
288.15 K, x1 = 0.0971	957.332 ± 0.25
288.15 K, x1 = 0.1499	939.294 ± 0.22
288.15 K, x1 = 0.2452	913.306 ± 0.2
288.15 K, x1 = 0.3359	895.82 ± 0.19
288.15 K, x1 = 0.3895	886.349 ± 0.18
288.15 K, x1 = 0.55	863.074 ± 0.2
288.15 K, x1 = 0.66	850.384 ± 0.2
288.15 K, x1 = 0.7	846.317 ± 0.21
288.15 K, x1 = 0.8	836.071 ± 0.22
288.15 K, x1 = 0.9	828.075 ± 0.23
298.15 K, x1 = 0.0133	990.926 ± 0.29
298.15 K, x1 = 0.0248	985.215 ± 0.31
298.15 K, x1 = 0.0299	982.27 ± 0.24
298.15 K, x1 = 0.0728	960.309 ± 0.32
298.15 K, x1 = 0.0971	949.172 ± 0.25
298.15 K, x1 = 0.19	917.46 ± 0.23
298.15 K, x1 = 0.2452	903.811 ± 0.19
298.15 K, x1 = 0.3359	884.947 ± 0.19
298.15 K, x1 = 0.4036	873.347 ± 0.19
298.15 K, x1 = 0.453	865.779 ± 0.19
298.15 K, x1 = 0.4767	862.238 ± 0.19
298.15 K, x1 = 0.505	858.158 ± 0.19
298.15 K, x1 = 0.595	846.184 ± 0.2
298.15 K, x1 = 0.6987	835.141 ± 0.21
298.15 K, x1 = 0.7907	826.047 ± 0.22
298.15 K, x1 = 0.8822	819.375 ± 0.23
308.15 K, x1 = 0.0133	987.229 ± 0.3
308.15 K, x1 = 0.0153	986.286 ± 0.3
308.15 K, x1 = 0.0248	980.469 ± 0.4
308.15 K, x1 = 0.0299	976.97 ± 0.42
308.15 K, x1 = 0.0728	952.068 ± 0.35
308.15 K, x1 = 0.0971	941.377 ± 0.29
308.15 K, x1 = 0.1972	908.857 ± 0.2
308.15 K, x1 = 0.391	866.58 ± 0.2
308.15 K, x1 = 0.4972	849.931 ± 0.19
308.15 K, x1 = 0.57	840.165 ± 0.19
308.15 K, x1 = 0.6987	825.724 ± 0.21
308.15 K, x1 = 0.78	818.342 ± 0.21
318.15 K, x1 = 0.00418	987.683 ± 0.34
318.15 K, x1 = 0.00896	985.125 ± 0.35
318.15 K, x1 = 0.0153	981.488 ± 0.36
318.15 K, x1 = 0.018	979.939 ± 0.41
318.15 K, x1 = 0.02	978.288 ± 0.41
318.15 K, x1 = 0.15	912.237 ± 0.32
318.15 K, x1 = 0.1972	896.689 ± 0.21
318.15 K, x1 = 0.3	874.067 ± 0.2
318.15 K, x1 = 0.4972	840.492 ± 0.19
318.15 K, x1 = 0.66	821.213 ± 0.2
318.15 K, x1 = 0.85	804 ± 0.23
328.15 K, x1 = 0.00418	983.308 ± 0.37
328.15 K, x1 = 0.00896	980.507 ± 0.37
328.15 K, x1 = 0.01	979.617 ± 0.37
328.15 K, x1 = 0.0133	977.934 ± 0.33
328.15 K, x1 = 0.3823	848.444 ± 0.25
328.15 K, x1 = 0.545	824.697 ± 0.19
328.15 K, x1 = 0.7049	807.305 ± 0.21
328.15 K, x1 = 0.795	800.206 ± 0.21
328.15 K, x1 = 0.945	790.511 ± 0.24

CN1CCCCC1 [N-methylpiperidine]
[2]
Conditions	mass density [kg/m3]	molar volume [m3/mol]
288.15 K	822.237 ± 0.24	0.0001206 ± 4e-08
298.15 K	810.887 ± 0.24	0.0001223 ± 5e-08
308.15 K	803.846 ± 0.24	0.0001234 ± 5e-08
318.15 K	796.931 ± 0.24	0.0001244 ± 5e-08
328.15 K	785.64 ± 0.24	0.0001262 ± 5e-08
338.15 K	781.618 ± 0.24	0.0001269 ± 5e-08
